These results are taken from patent US12522576B2, “Polymorphs of D9-THC naphthoylester” (priority 2019, dated 2026).

The format of data set [1] is physicochemical. The protocol:
Powder X-Ray Diffraction (PXRD). PXRD diffractograms were acquired on a PANalytical X'Pert Pro diffractometer using Ni-filtered Cu Ka (45 kV/40 mA) radiation and a step size of 0.03° 2θ and X'celerator™ RTMS (Real Time Multi-Strip) detector. Configuration on the incidental beam side: variable divergence slits (10 mm irradiated length), 0.04 rad Soller slits, fixed anti-scatter slit (0.50 o), and 10 mm beam mask. Configuration on the diffracted beam side: variable anti-scatter slit (10 mm observed length) and 0.04 rad Soller slit. Samples were mounted flat on zero-background Si wafers.
Group D solvates converted to Form C in the solid-state at different rates, depending on the solvent included. […] No phase-pure Group D was isolated from acetone-containing solvents, indicating the unstable nature of this solvate.

A short description of data set [2]: Polymorph screen of Exo-impurity. It is filed as physicochemical.
Data set [3] in a line: Competitive ripening (relative thermodynamic stability of non-solvated forms). The settings on record: for Nature (thermodynamic stability of crystal form): Table 6 summary.
Data set [4] is described as follows: D9 solubility in the liquors at isolation temperature. It is filed as physicochemical. Conditions: organic solvent or mixture, thermodynamic from solid. The procedure: At the end of each experiment, suspensions were equilibrated at the isolation temperature (25 or 5° C.) for at least 18 hours and the solids and liquors separated by centrifugation at the isolation temperature. The Exo/D9/D8 ratio (Exo-D9-THC-naphthoylester impurity/D9-THC-naphthoylester/D8-THC-naphthoylester) was determined in both the isolated solids and the liquors, from which the % Exo-depletion in the isolated solids was calculated. Several solids were also isolated at elevated temperatures to assess the impact of the isolation temperature on Exo-impurity depletion.
In addition, the solubility of D9 in the liquors was determined in most of the explored solvents and used to estimate the yield.

[5] abbreviates: Experiment No. 20, Nitromethane, seed Form E.
The mark [6] stands for this setting: Experiment No. 21, DMSO, seed Group D.
[7] abbreviates: Experiment No. 22, Acetone, seed Group D.
Setting [8] is: Experiment No. 23, MeCN, seed Group D.
The mark [9] stands for this setting: Experiment No. 24, P-Xylene/MeOH (10:90), seed Form E.

In brackets after ≈: the same amount, converted by molar mass. Entries after “also recorded” stand apart in the source; their conditions may differ. Where two headings read alike, the source gives them in different places.

Regarding `CCCCCc1cc(OC(=O)c2ccc3ccccc3c2)c2c(c1)OC(C)(C)[C@@H]1CCC(C)=C[C@@H]21` [DMSO solvate], the “Time of conversion to Form C in the solid-state” value in data set [1] (ambient temperature) is listed as “within five days”.
As for `C=C1CC[C@@H]2[C@@H](C1)c1c(OC(=O)c3ccc4ccccc4c3)cc(CCCCC)cc1OC2(C)C` [Exo, (6aR,10aR)-6,6-dimethyl-9-methylene-3-pentyl-6a,7,8,9,10,10a-hexahydro-6H-benzo[c]chromen-1-yl 2-naphthoate], the “Form Isolated at 5° C. 6 D (Exo)” value in data set [2] (setting [5]), in data set [2] (setting [6]), in data set [2] (setting [7]), in data set [2] (setting [8]) and in data set [2] (setting [9]) was “Input” throughout. For the same compound, the “Form Isolated at RT 5 D (Exo)” value is recorded as “Input” in data set [2] (setting [5]); “Input” in data set [2] (setting [6]); “No” in data set [2] (setting [7]); “Input” in data set [2] (setting [8]); “Input” in data set [2] (setting [9]). In addition, the Polymorphism result in data set [2] (seeded slurries at RT and 5° C.) is on record as “No evidence of polymorphism”.
Regarding `CCCCCc1cc(OC(=O)c2ccc3ccccc3c2)c2c(c1)OC(C)(C)[C@@H]1CCC(C)=C[C@@H]21` [Form F, (6aR,10aR)-6a,7,8,10a-tetrahydro-6,6,9-trimethyl-3-pentyl-6H-dibenzo[b,d]pyran-1-yl ester], in data set [1] (wet-cake after air-drying for five minutes at ambient), the “Form conversion by PXRD” value is “converted to Form E”. Besides, in data set [3], the “Nature (thermodynamic stability of crystal form)” value was “Transient”.
Take `CCCCCc1cc(OC(=O)c2ccc3ccccc3c2)c2c(c1)OC(C)(C)[C@@H]1CCC(C)=C[C@@H]21` [Form G, (6aR,10aR)-6a,7,8,10a-tetrahydro-6,6,9-trimethyl-3-pentyl-6H-dibenzo[b,d]pyran-1-yl ester]: in data set [3], the “Nature (thermodynamic stability of crystal form)” value is “Metastable”. For the same compound, the solubility in data set [4] (crystallisation liquors over suspended solid, 25 °C, batch 5, Anisole/MeOH (1:9), seed E/G, heat T 50, isolation T 25, 9.4 mL/g, SP 3) came to 8.1 mg/mL (≈ 17.3 mM); in data set [4] (crystallisation liquors over suspended solid, 25 °C, batch 5, Cyclohexanone/MeOH (1:3), seed G, heat T 40, isolation T 25, 9.4 mL/g, SP 3), 34.4 mg/mL (≈ 73.4 mM); in data set [4] (crystallisation liquors over suspended solid, 25 °C, batch 5, EtOAc/EtOH (1:9), seed G/H, heat T 55, isolation T 25, 5.0 mL/g, SP 15, Exp 53), 17.8 mg/mL (≈ 38 mM); in data set [4] (crystallisation liquors over suspended solid, 25 °C, batch 5, EtOAc/MeOH (1:2), seed H, heat T 55, isolation T 25, 8.0 mL/g, SP 21, Exp 50), 18.5 mg/mL (≈ 39.5 mM); in data set [4] (crystallisation liquors over suspended solid, 25 °C, batch 5, EtOAc/MeOH (1:3), seed G/H, heat T 55, isolation T 25, 10.0 mL/g, SP 15, Exp 55), 9.7 mg/mL (≈ 20.7 mM); in data set [4] (crystallisation liquors over suspended solid, 25 °C, batch 5, MEK/MeOH (3:7), seed G/H, heat T 55, isolation T 25, 5.0 mL/g, SP 15, Exp 51), 23.2 mg/mL (≈ 49.5 mM). In addition, the solubility in data set [4] (crystallisation liquors over suspended solid, 25 °C, batch 5, Toluene/MeOH (1:9), seed E/G, heat T 50, isolation T 25, 9.6 mL/g, SP 3) was found to be 6.5 mg/mL (≈ 13.9 mM); in data set [4] (crystallisation liquors over suspended solid, 25 °C, batch 5, Toluene/MeOH (5:95), seed H, heat T 50, isolation T 25, 10.0 mL/g, SP 20, Exp 44) it was 3.4 mg/mL (≈ 7.26 mM); in data set [4] (crystallisation liquors over suspended solid, 25 °C, batch 5, p-Xylene/MeOH (1:9), seed E/G, heat T 50, isolation T 25, 19.5 mL/g, SP 3), 7.5 mg/mL (≈ 16 mM); in data set [4] (liquors of the equilibrated crystallisation suspension, 25 °C, batch 5, Cyclohexanone/MeOH (1:3), seed G, heat T 25, isolation T 25, 30.0 mL/g, SP 7), 29.3 mg/mL (≈ 62.5 mM).
For `CCCCCc1cc(OC(=O)c2ccc3ccccc3c2)c2c(c1)OC(C)(C)[C@@H]1CCC(C)=C[C@@H]21` [Form H, (6aR,10aR)-6a,7,8,10a-tetrahydro-6,6,9-trimethyl-3-pentyl-6H-dibenzo[b,d]pyran-1-yl ester], the Relative thermodynamic stability result was “likely the most-stable form” in data set [3] (at 5° C., ripening incomplete within 29 days) and “most stable non-solvated crystal form; also recorded: thermodynamically most-stable form” in data set [3] (between 25-60° C., non-solvate forming solvents). For the same compound, the solubility stood at 71.4 mg/mL (≈ 152 mM) in data set [4] (crystallisation liquors over suspended solid, 5 °C, batch 5, Toluene/MeOH (3:7), seed G, heat T 25, isolation T 5, 10.0 mL/g, SP 11); 36.2 mg/mL (≈ 77.2 mM) in data set [4] (crystallisation liquors over suspended solid, 25 °C, batch 5, EtOAC/EtOH (2:8), seed H, heat T 50, isolation T 25, 8.0 mL/g, SP 17, Exp 47); 11.1 mg/mL (≈ 23.7 mM) in data set [4] (crystallisation liquors over suspended solid, 25 °C, batch 5, Toluene/EtOH (1:9), seed G/H, heat T 55, isolation T 25, 9.9 mL/g, SP 16, Exp 46); 19.6 mg/mL (≈ 41.8 mM) in data set [4] (crystallisation liquors over suspended solid, 25 °C, batch 5, Toluene/EtOH (1:9), seed H, heat T 40, isolation T 25, 10.0 mL/g, SP 19, Exp 54); 36.2 mg/mL (≈ 77.2 mM) in data set [4] (crystallisation liquors over suspended solid, 25 °C, batch 5, Toluene/EtOH (2:8), seed H, heat T 25, isolation T 25, 5.0 mL/g, SP 18, Exp 52); 6.8 mg/mL (≈ 14.5 mM) in data set [4] (crystallisation liquors over suspended solid, 25 °C, batch 5, Toluene/MeOH (1:9), seed H, heat T 50, isolation T 25, 15.0 mL/g, SP 17, Exp 48). For the same compound, the solubility came out at 25.1 mg/mL (≈ 53.6 mM) in data set [4] (crystallisation liquors over suspended solid, 25 °C, batch 5, Toluene/MeOH (2:8), seed H, heat T 50, isolation T 25, 6.0 mL/g, SP 17, Exp 41); 69.9 mg/mL (≈ 149 mM) in data set [4] (crystallisation liquors over suspended solid, 25 °C, batch 5, Toluene/MeOH (3:7), seed G, heat T 25, isolation T 25, 5.5 mL/g, SP 7); 80.2 mg/mL (≈ 171 mM) in data set [4] (crystallisation liquors over suspended solid, 25 °C, batch 5, Toluene/MeOH (3:7), seed G, heat T 25, isolation T 25, 8.0 mL/g, SP 7); 64.7 mg/mL (≈ 138 mM) in data set [4] (crystallisation liquors over suspended solid, 25 °C, batch 5, Toluene/MeOH (3:7), seed G, heat T 25, isolation T 25, 10.0 mL/g, SP 7); 71.4 mg/mL (≈ 152 mM) in data set [4] (liquors of the equilibrated crystallisation suspension, 5 °C, Toluene/MeOH (3:7), isolation 5 °C, SP 11, 10.0 mL/g, read-out: D9 Solubility at Isolation T); 36.2 mg/mL (≈ 77.2 mM) in data set [4] (liquors of the equilibrated crystallisation suspension, 25 °C, EtOAC/EtOH (2:8), isolation 25 °C, SP 17, 8.0 mL/g, read-out: D9 Solubility at Isolation T). The solubility in data set [4] (liquors of the equilibrated crystallisation suspension, 25 °C, EtOAc/MeOH (1:3), isolation 25 °C, SP 21, 10.0 mL/g, read-out: D9 Solubility at Isolation T) came out at 8.9 mg/mL (≈ 19 mM); in data set [4] (liquors of the equilibrated crystallisation suspension, 25 °C, Toluene/EtOH (1:9), isolation 25 °C, SP 16, 9.9 mL/g, read-out: D9 Solubility at Isolation T), 11.1 mg/mL (≈ 23.7 mM); in data set [4] (liquors of the equilibrated crystallisation suspension, 25 °C, Toluene/EtOH (1:9), isolation 25 °C, SP 19, 10.0 mL/g, read-out: D9 Solubility at Isolation T) it was 19.6 mg/mL (≈ 41.8 mM); in data set [4] (liquors of the equilibrated crystallisation suspension, 25 °C, Toluene/EtOH (2:8), isolation 25 °C, SP 18, 5.0 mL/g, read-out: D9 Solubility at Isolation T) it was 36.2 mg/mL (≈ 77.2 mM); in data set [4] (liquors of the equilibrated crystallisation suspension, 25 °C, Toluene/MeOH (1:9), isolation 25 °C, SP 17, 15.0 mL/g, read-out: D9 Solubility at Isolation T), 6.8 mg/mL (≈ 14.5 mM); in data set [4] (liquors of the equilibrated crystallisation suspension, 25 °C, Toluene/MeOH (2:8), isolation 25 °C, SP 17, 6.0 mL/g, read-out: D9 Solubility at Isolation T) it was 25.1 mg/mL (≈ 53.6 mM). In addition, the solubility was determined as 69.9 mg/mL (≈ 149 mM) in data set [4] (liquors of the equilibrated crystallisation suspension, 25 °C, Toluene/MeOH (3:7), isolation 25 °C, SP 7, 5.5 mL/g, read-out: D9 Solubility at Isolation T); 80.2 mg/mL (≈ 171 mM) in data set [4] (liquors of the equilibrated crystallisation suspension, 25 °C, Toluene/MeOH (3:7), isolation 25 °C, SP 7, 8.0 mL/g, read-out: D9 Solubility at Isolation T); 64.7 mg/mL (≈ 138 mM) in data set [4] (liquors of the equilibrated crystallisation suspension, 25 °C, Toluene/MeOH (3:7), isolation 25 °C, SP 7, 10.0 mL/g, read-out: D9 Solubility at Isolation T); 8.9 mg/mL (≈ 19 mM) in data set [4] (liquors of the equilibrated crystallisation suspension, 25 °C, batch 5, EtOAc/MeOH (1:3), seed H, heat T 55, isolation T 25, 10.0 mL/g, SP 21, Exp 34).

As a reminder, the solubility is the dissolved amount per volume that the medium holds.
